Like-named read-outs stand apart in the source and are kept apart here. Marks after values point to notes of the source that are not given here.
Columns and labels:
[1] = Amiodarone drug monitoring by liquid chromatography-mass spectrometry after discontinuation of oral therapy; format: in vivo, pigs; details: within 1 week of discontinuation of chronic oral amiodarone; pig
Method: Amiodarone levels were measured in plasma by a liquid chromatography-mass spectrometry assay. Chronic oral amiodarone in six pigs was discontinued after achieving electrical maturation and stabilization of engraftment arrythmia. Serum concentrations of amiodarone were assayed weekly, including 3-4 weeks after discontinuation.
A novel liquid chromatography—mass spectrometry assay was established for amiodarone to monitor steady state serum levels in the porcine model and guide oral dosing to ensure efficacy and avoid dose-related toxicity. A target serum level of 1.5-4.0 μg/ml was extrapolated from prior human pharmacokinetic studies (16,17). Elimination kinetics after discontinuation of oral amiodarone therapy were also studied by obtaining weekly trough concentrations in 6 pigs (subjects 6, 7, 8, 13, 14, 16) (FIG. 18).

[2] = test system: engraftment arrhythmia (EA); details: for Result: HR effect / Result: cardioversion / Result: response on EA burden: Table 1, swine; for Effect: HR effect / Effect: cardioversion / Effect: response on EA burden: Table 2, Phase 1; for effect on heart rate (agent alone) / effect on rhythm: cardioversion / sinus rhythm / arrhythmia burden (agent alone): running text and figure legend, pigs in EA
Method: A number of anti-arrhythmic therapies were tested to determine their efficacy in treating and preventing engraftment arrhythmias.
The objective of this study was to identify a pharmacological regimen to attenuate arrhythmias following cardiac remuscularization therapy. This study was designed in two phases: the first, to observe the natural history of EA and screen various antiarrhythmic agents for efficacy and the second, test for efficacy (FIG. 16). All subjects were 30-40 kg castrated male Yucatan minipigs between 6-13 months of age (S&S Farms). In Phase 1, nine subjects underwent cardiac remuscularization therapy with 500×10^6 hESC-CM delivered by direct surgical transepicardial injections or later, by percutaneous transendocardial injections. The first four subjects (one non-infarcted and three infarcted) were followed to learn the natural history of EA and establish clinical endpoints and parameters for the Phase 2 drug trial. The subsequent five subjects underwent systematic dosing with antiarrhythmic agents with continuous electrocardiography (ECG) monitoring to determine effect on rhythm and rate (Table 2).
In addition, the funny current/HCN4 channel antagonist, ivabradine, was tested (Tables 1 and 2). This series was not meant to be definitive but rather to rapidly identify candidate agents. Animals were brought into the laboratory while in EA, anesthetized, and the effects of short-term intravenous infusion of anti-arrhythmic agents were studied.
Subjects were administered multiple trials antiarrhythmics and observed for acute response by continuous ECG monitoring. Intravenous agents were delivered as a bolus dose over 2 minutes. Oral agents were administrated by direct observation in a minimum of apples, apple sauce or pumpkin puree with daily feeding and dosed daily for dose escalation. A washout period of at least three days was provided between agents. Amiodarone was administered as the last agent for testing given concern for prolonged half-life and elimination kinetics. All agents were tested in at least two subjects.

[3] = test system: engraftment arrhythmia (EA); assay: Antiarrhythmic trial in non-human primate engraftment model; format: in vivo; details: Table 1, concentration not given

Structure (SMILES) | Result: HR effect [2] | Effect: HR effect ([2]; pig) | Result: response on EA burden [2] | effect in the antiarrhythmic screen (heart rate or arrhythmia burden) [2] | Effect: response on EA burden ([2]; pig) | other results
CCCCc1oc2ccccc2c1C(=O)c1cc(I)c(OCCN(CC)CC)c(I)c1 [Amiodarone] | Modest HR effect | Modest HR effect | – | – | – | Average serum amiodarone [1]: 0.42 ± 0.12 µg/mL; Result: cardioversion [2]: frequent; Effect: cardioversion ([2]; pig): frequent; effect on heart rate (agent alone) [2]: moderate effect on reducing heart rate; effect on rhythm: cardioversion / sinus rhythm / arrhythmia burden (agent alone) [2]: effective as an intravenous bolus to cardiovert
O=C1CN(/N=C/c2ccc(-c3ccc([N+](=O)[O-])cc3)o2)C(O)=N1 [Dantrolene] | No response on HR or EA burden | – | No response on HR or EA burden | – | – | –
O=C(NCC1CCCCN1)c1cc(OCC(F)(F)F)ccc1OCC(F)(F)F (centres unmarked) [Flecainide] | No response on HR or EA burden | No response on HR or EA burden | No response on HR or EA burden | no significant effect | No response on HR or EA burden | –
COc1cc2c(cc1OC)CC(=O)N(CCCN(C)C[C@H]1Cc3cc(OC)c(OC)cc31)CC2 [Ivabradine] | Robust dose-dependent HR | Robust dose-dependent HR effect (PO | – | – | only)**, no response on EA burden | Effect: adverse events (footnotes * and **) ([2]; pig, in vivo): **Severe bradycardia; effect on heart rate (agent alone) ([2]; listed as ivabradine): robust dose-dependent effects on heart rate; effect on rhythm: cardioversion / sinus rhythm / arrhythmia burden (agent alone) ([2]; listed as ivabradine): did not restore sinus rhythm
CCN(CC)CC(=O)Nc1c(C)cccc1C [Lidocaine] | Modest HR effect | Modest HR effect | – | no significant effect | – | Result: cardioversion [2]: rare; Effect: cardioversion ([2]; pig): rare
COCCc1ccc(OCC(O)CNC(C)C)cc1 (centres unmarked) [Metoprolol] | Moderate HR effect (IV only) | Moderate HR effect (IV only) | no | no significant effect | no | –
CCCNCC(O)COc1ccccc1C(=O)CCc1ccccc1 (centres unmarked) [Propafenone] | – | – | – | – | – | Effect: adverse events (footnotes * and **) ([2]; pig, in vivo): *Severe nausea/emesis observed at therapeutic doses, limiting clinical utility; Result: adverse events (* remarks) ([2]; pig, in vivo): * Dose limited emesis
CC(C)NCC(O)c1ccc(NS(C)(=O)=O)cc1 (centres unmarked) [Sotalol] | No response on HR or EA burden | No response on HR or EA burden | No response on HR or EA burden | no significant effect | No response on HR or EA burden | –
COc1ccc(CCN(C)CCCC(C#N)(c2ccc(OC)c(OC)c2)C(C)C)cc1OC (centres unmarked) [Verapamil] | – | – | – | – | – | Result [3]: Sudden cardiac death
